Laboratory results: PMC4628094, “In Vitro Assessment of Uptake and Lysosomal Sequestration of Respiratory Drugs in Alveolar Macrophage Cell Line NR8383” (Pharmaceutical Research, 2015)
Structures can show the parent of a compound that is named as a salt. Where two headings read alike, the source gives them in different places. Marks after values point to notes of the source that are not given here.

Legend:
[1] = test system: NR8383 cell line and granule fraction (containing lysosomes); details: NH4Cl 10 mM, drug 50 µM, ref (12), cited from earlier work
[2] = test system: NR8383 cells; assay: Drug uptake in NR8383 at 37 and 4°C (CLuptake, CLdiff, Kp); details: NR8383, 5 μM; for Contribution of passive (%): CLdiff relative to CLuptake
Method: (§1) The studies were carried out in a 24-well plate format and the in vitro conditions were optimised in terms of cell detachment method from culture flasks, coating type of 24-well plates, seeding density, culturing time and drug incubation time points. Briefly, for cell detachment, gentle scraping versus Mg^2+-Ca^2+ free DPBS treatment of cells in culture flasks were tested. Considering the semi-adherent nature of AMs, cell seeding into non-coated, collagen-I and poly-D-lysine coated 24-well plates was investigated for cell attachment, distribution in the wells and detachment following DPBS washes during the uptake experiments. In addition, seeding densities of 0.36 and 0.72 × 10^6 cells per well were assessed with respect to cell attachment, confluency following culture (plating efficiency) and potential cell detachment following DPBS washes. Culturing time ranging from 4 to 24 h was investigated for optimal cell attachment before carrying out uptake experiments. Uptake rate and Kp data were normalised by cell number determined indirectly by measuring the amount of protein in samples by bicinchoninic acid (BCA) protein assay (Thermo Scientific, Loughborough, UK). Following the optimisation, detachment of NR8383 from cell culture flasks was performed by gentle scraping prior to cell counting and seeding into collagen-I coated 24-well plates at 0.5 × 10^6 cells per well. Cells were cultured for 16 h at 37°C, 5% CO2 (CO2 incubator, MCO-17AIC, Sanyo Biomedical, Loughborough, UK) before uptake studies performed over 1 to 10 min period.
(§2) The drug uptake in NR8383 corresponding to these conditions was described by total uptake (CLuptake) and passive diffusion (CLdiff) clearance terms, respectively. […] Substrate solutions were prepared by dilution of the stock solutions in DPBS resulting in final DMSO content < 1%. Uptake studies were performed in the presence of 1 mM ABT, a nonspecific P450 inhibitor, in order to avoid any potential impact of phase I metabolism. […] Following microscopy, the CGM was removed, cells were washed twice with 800 μL of either pre-warmed or ice-cold DPBS (for experiments at 37 and 4°C, respectively) and pre-incubation with 500 μL of pre-warmed or ice-cold ABT/DPBS was carried out for 20 min. Where ABT pre-treatment was not necessary, cell monolayers were treated with 500 μL of DPBS only. Once pre-incubation buffer was removed from the cell monolayers, incubations were started by addition of 400 μL of substrate solution (pre-warmed or ice-cold) in each well. Each substrate was incubated with the cells for 1, 2, 5 and 10 min and each time point at 37°C and 4°C. For 37°C experiments, incubation was carried out on a dry heater block maintained at 37°C throughout the experiment (Tecam Dri-block DB-3, Tecam, Princeton, NJ) and for 4°C experiments, the procedure was carried out on ice. Incubation with substrate was stopped by removal of the media with drug solution and washing the monolayers three times with 800 μL ice-cold DPBS. The back-diffusion of the drug from the cell into the medium was considered to be negligible under these conditions. The removed incubation media were retained for the measurement of drug medium concentrations and subsequent determination of Kp for each drug. The cells were lysed by addition of 200 μL ice-cold deionised water; cell lysates were kept at −20°C overnight and then processed further for LC-MS/MS analysis. Experiments were performed on three or more separate occasions for each drug investigated. […] The amount of protein per well was measured using a BSA calibration curve and absorbances read at 562 nm (S22 Boeco UV-Visible Spectrophotometer, Hamburg, Germany).

[3] = as above; details: rat
Method: as §1, §2

[4] = test system: NR8383 cells; assay: Lysosomal sequestration studies in NR8383 with NH4Cl, monensin and nigericin; details: for % Reduction in Kp by NH4Cl: NH4Cl 20 mM; for reduction in Kp in the presence of chemical agents (summary in Discussion): NR8383, NH4Cl, monensin, nigericin
Method: (§3) The extent of accumulation of drugs in lysosomes was assessed using the same uptake methodology, as described above in the absence and presence of NH4Cl and ionophores, monensin and nigericin. […] In addition, a range of incubation conditions was explored, including pre-incubation and co-incubation alone and combined together. Once the conditions were optimised, further experiments were performed with 20 mM NH4Cl co-incubated with investigated drugs. […] For incubations with monensin and nigericin, all drugs were prepared at 5 μM concentration and the incubations were carried out for 5 min (single time point). Following the treatment of the cell monolayers with drug alone or drug with the agents mentioned, incubations were stopped by washing of the cells with ice-cold DPBS as described above, followed by cell lysis in deionised water. All incubations were carried out in duplicate and experiments were performed for three separate occasions. The removed incubation media were retained for the measurement of drug concentrations and subsequent determination of Kp for each compound. Analysis of samples in LC-MS/MS was performed after cells were kept at −20°C overnight.
(§4) Kp and CLuptake were determined as described above for each drug both under control condition and in the presence of a chemical agent affecting the pH gradient between cytosol and lysosomes. The reduction in Kp and CLuptake of each drug in the presence of the chemical agents was expressed as a percentage relative to control and used as an indicator of the extent of lysosomal sequestration. A 50% reduction in both parameters was set as a cut-off for lysosomal accumulation, while also taking into account the physicochemical properties of the compounds (Table I) and the uncertainty associated with the experimental data.
(§5) The in vitro parameters were calculated on at least three separate occasions and the mean data were reported. When assessing the extent of lysosomal sequestration, the control and chemical agent treated cells were compared using the two-tailed, paired t-test in order to determine statistically significant difference between the two conditions. Values were reported as significant when p < 0.05.

[5] = as above; details: rat; for Kp at 10 min, 5 μM: NR8383, 5 μM drug; for Kp at 10 min, 20 µM: NR8383, 20 µM drug
Method: as §3, §4, §5

[6] = Physicochemical properties, experimental literature values (Table I); details: classification in Table I
[7] = test system: Lung tissue slices from male Wistar rats; design: method as in ref (14) (a number printed in a supplementary file, which may have a reference list of its own: not looked up in the article's list); details: monensin 10 µM, drug 5 µM, 60 min, ref (14); cited from earlier work
[8] = test system: Liver tissue slices from male Wistar rats; design: method as in ref (14) (a number printed in a supplementary file, which may have a reference list of its own: not looked up in the article's list); details: monensin 10 µM, drug 5 µM, 60 min, ref (14); cited from earlier work
[9] = test system: Lung tissue slices from male Wistar rats; design: method as in ref (5) (a number printed in a supplementary file, which may have a reference list of its own: not looked up in the article's list); details: NH4Cl 20 mM, drug 5 µM, 60 min, ref (5); cited from earlier work
[10] = test system: Liver tissue slices from male Wistar rats; design: method as in ref (5) (a number printed in a supplementary file, which may have a reference list of its own: not looked up in the article's list); details: NH4Cl 20 mM, drug 5 µM, 60 min, ref (5); cited from earlier work
[11] = test system: Lung granule fraction containing lysosomes from male Wistar rats; design: method as in ref (6) (a number printed in a supplementary file, which may have a reference list of its own: not looked up in the article's list); details: NH4Cl 10 mM, drug 1 µM, 10 min; ref (6); cited from earlier work
[12] = cited from earlier work
[13] = test system: Lung tissue slices from male Wistar rats; design: method as in ref (8) (a number printed in a supplementary file, which may have a reference list of its own: not looked up in the article's list); details: drug 5 µM, 60 min, ref (8), cited from earlier work; for Reduction in total uptake (%): NH4Cl 20 mM
[14] = test system: Lung tissue slices from male Wistar rats; design: method as in ref (9) (a number printed in a supplementary file, which may have a reference list of its own: not looked up in the article's list); details: drug 5 µM, 60 min, ref (9), cited from earlier work; for Reduction in total uptake (%): NH4Cl 20 mM
[15] = test system: NR8383 cells; assay: LysoTracker Red (LTR) confocal assessment of lysosomal sequestration in NR8383; assay type: cell-based, rat; details: NH4Cl 20 mM, monensin 5 μM, nigericin 10 μM with 200 nM LTR
[16] = test system: Liver tissue slices from male Wistar rats; design: method as in ref (9) (a number printed in a supplementary file, which may have a reference list of its own: not looked up in the article's list); details: drug 5 µM, 60 min, ref (9), cited from earlier work; for Reduction in total uptake (%): NH4Cl 20 mM
[17] = test system: Brain slices from male Wistar rats; design: method as in ref (10) (a number printed in a supplementary file, which may have a reference list of its own: not looked up in the article's list); details: drug 5 µM, 60 min, ref (10), cited from earlier work; for Reduction in total uptake (%): NH4Cl 20 mM; for Reduction of total uptake (%): monensin 10 µM
[18] = test system: Liver tissue slices from male Wistar rats; design: method as in ref (8) (a number printed in a supplementary file, which may have a reference list of its own: not looked up in the article's list); details: drug 5 µM, 60 min, ref (8), cited from earlier work; for Reduction in total uptake (%): NH4Cl 20 mM
[19] = test system: Lung tissue slices from male Sprague-Dawley rats; details: monensin 10 µM, desipramine, diazepam 5 µM, chloroquine, thiopental 10 µM, 60 min, ref (3); cited from earlier work
[20] = NR8383 cells, Kp (cell-to-medium concentration ratio), NR8383, 5 μM, 37°C, 10 min
[21] = NR8383 cells, Kp + NH4Cl, 20 mM NH4Cl co-incubated, 10 min
[22] = NR8383 cells, Kp + NH4Cl, 20 mM NH4Cl
[23] = NR8383 cells, Kp Control, control
[24] = experimental value, ref ([21])-([30]) per drug, Table I

CC[C@H]1OC(=O)[C@H](C)[C@@H](O[C@H]2C[C@@](C)(OC)[C@@H](O)[C@H](C)O2)[C@H](C)[C@@H](O[C@@H]2O[C@H](C)C[C@H](N(C)C)[C@H]2O)[C@](C)(O)C[C@@H](C)CN(C)[C@H](C)[C@@H](O)[C@]1(C)O [Azithromycin]
Reduction in total uptake (%) ([1]; Granule, after subcellular fractionation, 30 min): 72%
Reduction in total uptake (%) ([1]; before subcellular fractionation, azithromycin 120 min, clarithromycin 60 min): 97%

CCCC1O[C@@H]2C[C@H]3[C@@H]4CCC5=CC(=O)C=C[C@]5(C)[C@H]4[C@@H](O)C[C@]3(C)[C@]2(C(=O)CO)O1 (stereo partly shown) [Budesonide]
Contribution of passive (%) [2]: 97.2%
Kp at 10 min, 5 μM [3, 20]: 37.6 ± 11.4
% Reduction in Kp by NH4Cl ([4]; NR8383, 5 μM drug): 10 ± 7.8%
% Reduction in Kp by NH4Cl ([4]; NR8383, 20 µM drug): 6.6 ± 4.1%
% Reduction in CLuptake by NH4Cl (20 mM) ([4]; NR8383, at 5 µM drug): 18 ± 15%
reduction in Kp in the presence of chemical agents (summary in Discussion) [4]: < 15%
Kp at 10 min, 5 μM [5, 21]: 28.1 ± 7.12
Kp at 10 min, 20 µM [5, 22]: 31 ± 12
Kp at 10 min, 5 μM [5, 23]: 31.5 ± 8.46
Kp at 10 min, 20 µM [5, 23]: 34 ± 12.5
Acid–base Property [6]: Neutral

NC(=O)N1c2ccccc2C=Cc2ccccc21 [Carbamazepine]
Reduction of total uptake (%) [7]: 5.4%
Reduction of total uptake (%) [8]: 0%
Reduction in total uptake (%) [9]: 5.4%
Reduction in total uptake (%) [10]: 16.1%

CN(C)CCCN1c2ccccc2Sc2ccc(Cl)cc21 [Chlorpromazine]
Reduction in total uptake (%) [11]: 8%

CC(Cc1ccc(O)cc1)NCC(O)c1cc(O)cc(O)c1 (stereo not shown) [Fenoterol]
Contribution of passive (%) [2]: 8.03%
Kp at 10 min, 5 μM [3]: 5.69 ± 0.98
hepatocyte CLint at 5 μM ([3]; other cell line): < 1 µL/min/1e6 cells
% Reduction in Kp by NH4Cl ([4]; NR8383, 5 μM drug): 31 ± 23%
% Reduction in Kp by Monensin ([4]; NR8383, 5 μM drug, monensin 5 μM, 5 min): 27 ± 25%
% Reduction in Kp by Nigericin ([4]; NR8383, 5 μM drug, nigericin 10 μM, 5 min): 30 ± 12%
% Reduction in Kp by NH4Cl ([4]; NR8383, 20 µM drug): 27 ± 24%
% Reduction in CLuptake by Monensin (5 µM) ([4]; NR8383, at 5 µM drug): 29 ± 21%
% Reduction in CLuptake by NH4Cl (20 mM) ([4]; NR8383, at 5 µM drug): 36 ± 12%
% Reduction in CLuptake by Nigericin (10 µM) ([4]; NR8383, at 5 µM drug): 25 ± 15%
% Reduction in CLuptake by NH4Cl (20 mM) ([4]; NR8383, at 20 µM drug): 22 ± 28%
reduction in Kp in the presence of chemical agents (summary in Discussion) [4]: 20–40%
Kp at 10 min, 5 μM ([5]; Kp + NH4Cl, 20 mM NH4Cl co-incubated, 10 min): 2.91 ± 2.11
Kp at 10 min, 20 µM ([5]; Kp + NH4Cl, 20 mM NH4Cl): 0.96 ± 0.33
Kp at 10 min, 5 μM ([5]; Kp Control, control): 4.25 ± 2.64
Kp at 10 min, 20 µM ([5]; Kp Control, control): 1.5 ± 0.93
LogD7.4 [12, 24]: 0.74
Acid–base Property [6]: Base

CNCCC(Oc1ccc(C(F)(F)F)cc1)c1ccccc1 (stereo not shown) [Fluoxetine]
Reduction in total uptake (%) [13]: 41%
Reduction of total uptake (%) [7]: 23%
Reduction in total uptake (%) [14]: 39%
Reduction in total uptake (%) [9]: 21%

Cl.N [NH4Cl, ammonium chloride]
reduced LTR fluorescent signal [15]: up to 85%

CC(C)=CCN1CCC2(C)c3cc(O)ccc3CC1C2C (stereo not shown) [Pentazocine]
Reduction in total uptake (%) [11]: 77%

CN1CCN(CCCN2c3ccccc3Sc3ccccc32)CC1 [Perazine]
Reduction in total uptake (%) [16]: 61%
Reduction of total uptake (%) ([16]; monensin 10 µM): 65%
Reduction in total uptake (%) [14]: 58%
Reduction of total uptake (%) ([14]; monensin 10 µM): 71.6%
Reduction in total uptake (%) [17]: 55%
Reduction of total uptake (%) [17]: 55%

CC(CN1c2ccccc2Sc2ccccc21)N(C)C (stereo not shown) [Promethazine]
Reduction in total uptake (%) [11]: 17%

CO[C@H]1/C=C/O[C@@]2(C)Oc3c(C)c(O)c4c(O)c(c(/C=N/N5CCN(C)CC5)c(O)c4c3C2=O)NC(=O)/C(C)=C\C=C\[C@H](C)[C@H](O)[C@@H](C)[C@@H](O)[C@@H](C)[C@H](OC(C)=O)[C@@H]1C [Rifampicin]
LogD7.4 [12, 24]: 0.3
pKa_b (basic pKa) [12, 24]: 6.70
Acid–base Property [6]: Zwitterion

CN[C@H]1CC[C@@H](c2ccc(Cl)c(Cl)c2)c2ccccc21 [Sertraline]
Reduction in total uptake (%) [16]: 29%
Reduction in total uptake (%) [13]: 40%
Reduction of total uptake (%) [7]: 50%
Reduction of total uptake (%) [8]: 19%
Reduction in total uptake (%) [14]: 45%
Reduction in total uptake (%) [9]: 42%
Reduction in total uptake (%) [18]: 42%

CC(C)(C)NCC(O)c1cc(O)cc(O)c1 (stereo not shown) [Terbutaline]
Kp (cell-to-medium concentration ratio) ([2]; 37°C, 10 min): 0.69 ± 0.16
Contribution of passive (%) [2]: 47.6%
hepatocyte CLint at 5 μM ([3]; NR8383 cells): < 1 µL/min/1e6 cells
Kp at 10 min, 5 μM [3, 20]: ~1
% Reduction in Kp by NH4Cl ([4]; NR8383, 5 μM drug): 21 ± 5.0%
% Reduction in Kp by NH4Cl ([4]; NR8383, 20 µM drug): 22^ a %
% Reduction in CLuptake by NH4Cl (20 mM) ([4]; NR8383, at 5 µM drug): 15 ± 15%
% Reduction in CLuptake by NH4Cl (20 mM) ([4]; NR8383, at 20 µM drug): 36 ± 23%
reduction in Kp in the presence of chemical agents (summary in Discussion) [4]: 20–40%
Kp at 10 min, 5 μM [5, 21]: 0.72 ± 0.31
Kp at 10 min, 20 µM [5, 22]: 0.56 ± 0.29
Kp at 10 min, 5 μM [5, 23]: 0.92 ± 0.39
Kp at 10 min, 20 µM [5, 23]: 0.79 ± 0.46
LogD7.4 ([12]; Average value of two studies, ref ([27],[28])): −1.50 ^b
pKa_a (acidic pKa) [12, 24]: 8.60
pKa_b (basic pKa) [12, 24]: 9.90
Acid–base Property [6]: Base

CCCC(C)C1(CC)C(=O)NC(=S)NC1=O (stereo not shown) [Thiopental]
Reduction of total uptake (%) [19]: 10%

CSc1ccc2c(c1)N(CCC1CCCCN1C)c1ccccc1S2 (stereo not shown) [Thioridazine]
Reduction in total uptake (%) [13]: 41%
Reduction of total uptake (%) ([13]; monensin 10 µM): 35%
Reduction in total uptake (%) [17]: 62%
Reduction of total uptake (%) [17]: 58%
Reduction in total uptake (%) [18]: 75%
Reduction of total uptake (%) ([18]; monensin 10 µM): 82%

C[N+]1(C)[C@@H]2C[C@@H](OC(=O)C(O)(c3cccs3)c3cccs3)C[C@H]1[C@@H]1O[C@@H]12 [Tiotropium bromide]
Contribution of passive (%) [2]: 16.3%
Kp at 10 min, 5 μM [3, 20]: 8.74 ± 7.24
% Reduction in Kp by NH4Cl ([4]; NR8383, 5 μM drug): 12 ± 1.8%
% Reduction in Kp by NH4Cl ([4]; NR8383, 20 µM drug): 35 ± 26%
% Reduction in CLuptake by NH4Cl (20 mM) ([4]; NR8383, at 5 µM drug): 15 ^a %
% Reduction in CLuptake by NH4Cl (20 mM) ([4]; NR8383, at 20 µM drug): 28 ^a %
reduction in Kp in the presence of chemical agents (summary in Discussion) [4]: < 15%
Kp at 10 min, 5 μM [5, 21]: 3.87 ± 2.61
Kp at 10 min, 20 µM [5, 22]: 2 ± 0.64
Kp at 10 min, 5 μM [5, 23]: 4.39 ± 2.9
Kp at 10 min, 20 µM [5, 23]: 2.4 ± 1
Acid–base Property [6]: Permanently cationic

CC[C@@]1([C@@H]2O[C@@H]([C@H]3O[C@@](O)(CO)[C@H](C)C[C@@H]3C)C[C@@H]2C)CC[C@H]([C@]2(C)CC[C@]3(C[C@H](O)[C@@H](C)[C@@H]([C@@H](C)[C@@H](OC)[C@H](C)C(=O)O)O3)O2)O1 [monensin, monensin sodium salt]
reduced LTR fluorescent signal [15]: up to 85%

CO[C@@H]1C[C@@H](C[C@H]2CC[C@H](C)[C@H]([C@@H](C)C(=O)O)O2)O[C@]2(O[C@](C)([C@H]3CC[C@@](C)([C@@H]4O[C@@H]([C@H]5O[C@@](O)(CO)[C@H](C)C[C@@H]5C)C[C@@H]4C)O3)C[C@H]2C)[C@@H]1C [nigericin, nigericin sodium salt]
reduced LTR fluorescent signal [15]: up to 85%
